Assays:
EGFR = biological target: T1, EGFR (Homo sapiens, UniProt P00533); experiment: Assay for modulation of EGFR activity (ELISA); assay type: biochemical; conditions: read-out: bio EGFR IC50
T1 construct: A431 […] cell lysate is stored at −80° C; host or cells: A431 cell lysate

PDGFR = biological target: T2, PDGFR (Homo sapiens, UniProt P09619); experiment: Assay for modulation of PDGFR activity (ELISA); assay type: biochemical; conditions: read-out: bio PDGFR IC50
T2 construct: expressed in transfected cells; host or cells: NIH3T3
Procedure: Using the following reagents, supplies, and methods, the ability of the compounds of the invention to modulate the in vitro activity of the PDGFR can be readily determined in an enzyme-linked immunosorbent assay (ELISA).
Monoclonal anti-PDGFR antibody (28D4C10) is stored at −20° C. in 50 mL tubes prior to use.
Lysates from PDGFR-β expressing NIH3T3 cells are obtained and stored at −80° C. in 1 mL aliquots. PDGFR-β expression in eukaryotic cells is well known in the art. Lysates are prepared by the following method. Place carrier dishes in ice trays, and after cooling, remove the media and replace with ice cold PBS. Remove the PBS and repeat. […] Take up lysate with a pipettor and add to a 30 mL centrifuge tube on ice. Vortex the tubes for 30-60 seconds and then centrifuge for 10 minutes at 7000 rpm in a J-20 rotor which has been precooled to below 0° C. Recover the supernatants and combine them in a 250 mL tube and place on ice. Perform protein determination to measure the total quantity of protein per mL of solution. Aliquot the lysate into 1 mL fractions and store at −80° C.
Coat Corning 96 well ELISA plates with 0.5 μg per well 28D4C10 antibody in a volume of 100 μl PBS overnight, at 4° C. and remove unbound antibody, 28D4C10, from wells by inverting plate to remove liquid. Wash 1× with distilled H2O by filling wells. Pat the plate on a paper towel to remove excess liquid.
Add 150 μL of Blocking Buffer to each well. Incubate for 30 minutes at room temperature, with shaking and wash plate 3× with deionized water, then once with TBST. Pat plate on a paper towel to remove excess liquid and bubbles
Dilute lysate in PBS (10 mg lysate/100 μL PBS). Add 100 μL of diluted lysate to each well. Shake at room temperature for 60 min. Wash plate 3× with deionized water, then once with TBST. Pat plate on a paper towel to remove excess liquid and bubbles.
Add 80 μL Kinase Buffer to ELISA plate containing captured PDGFR.
Dilute drugs/extracts 1:10 (unless specified otherwise) in TBS+10% DMSO in 96-well polypropylene plates. (i.e., 10 μL compound+90 μL (TBS+10% DMSO)). Add 10 μL diluted drugs/extracts to ELISA plate. […] Incubate for 30 minutes while shaking at room temperature.
After 30 minutes stop reaction with addition of 10 μL of 200 mM EDTA pH 8.0 for 20 mM final in well. Wash 4× with deionized water, twice with TBST.
Incubate 30-45 minutes at room temperature, with shaking. Wash plate 3× with deionized water, then once with TBST. Pat plate on a paper towel to remove excess liquid and bubbles.
Incubate 30 minutes at room temperature with shaking. Wash plate 3× with deionized water, then once with TBST. Pat plate on a paper towel to remove excess liquid and bubbles.
Add 100 μL of ABTS/H2O2 solution to each well. Incubate 10 to 30 minutes while shaking. Remove any bubbles. If necessary stop reaction with the addition of 100 μL of 0.2M HCl per well
Read assay on Dynatech MR7000 ELISA reader.

T2 sequence (P09619 33-1106, species assumed): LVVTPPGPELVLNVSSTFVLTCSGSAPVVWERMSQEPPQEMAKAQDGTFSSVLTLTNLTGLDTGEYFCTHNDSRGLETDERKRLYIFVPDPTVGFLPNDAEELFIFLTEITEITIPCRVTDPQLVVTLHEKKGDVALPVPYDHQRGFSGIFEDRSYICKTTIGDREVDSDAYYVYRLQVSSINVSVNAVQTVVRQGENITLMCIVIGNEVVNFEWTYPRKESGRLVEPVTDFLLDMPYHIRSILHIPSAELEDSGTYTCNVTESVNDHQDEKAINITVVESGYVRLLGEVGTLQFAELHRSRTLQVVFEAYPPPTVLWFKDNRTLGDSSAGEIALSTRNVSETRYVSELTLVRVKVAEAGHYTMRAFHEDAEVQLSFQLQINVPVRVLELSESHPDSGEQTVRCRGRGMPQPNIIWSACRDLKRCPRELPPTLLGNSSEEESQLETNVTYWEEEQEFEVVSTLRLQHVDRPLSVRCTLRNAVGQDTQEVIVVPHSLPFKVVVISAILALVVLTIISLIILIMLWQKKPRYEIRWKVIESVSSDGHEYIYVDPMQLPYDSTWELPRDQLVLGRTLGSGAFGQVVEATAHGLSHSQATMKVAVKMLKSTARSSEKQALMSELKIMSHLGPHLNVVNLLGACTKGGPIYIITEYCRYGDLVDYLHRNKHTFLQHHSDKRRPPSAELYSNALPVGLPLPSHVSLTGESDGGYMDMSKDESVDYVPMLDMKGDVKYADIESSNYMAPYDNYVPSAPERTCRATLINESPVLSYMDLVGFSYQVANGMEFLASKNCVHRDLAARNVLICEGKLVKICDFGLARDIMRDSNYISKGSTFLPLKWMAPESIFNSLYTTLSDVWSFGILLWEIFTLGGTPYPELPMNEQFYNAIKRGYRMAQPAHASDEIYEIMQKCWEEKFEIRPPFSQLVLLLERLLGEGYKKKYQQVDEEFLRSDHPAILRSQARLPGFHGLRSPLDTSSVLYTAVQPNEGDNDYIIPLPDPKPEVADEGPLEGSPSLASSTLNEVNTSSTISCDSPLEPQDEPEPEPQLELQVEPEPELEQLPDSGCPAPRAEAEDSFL
T1 sequence (P00533 25-1210): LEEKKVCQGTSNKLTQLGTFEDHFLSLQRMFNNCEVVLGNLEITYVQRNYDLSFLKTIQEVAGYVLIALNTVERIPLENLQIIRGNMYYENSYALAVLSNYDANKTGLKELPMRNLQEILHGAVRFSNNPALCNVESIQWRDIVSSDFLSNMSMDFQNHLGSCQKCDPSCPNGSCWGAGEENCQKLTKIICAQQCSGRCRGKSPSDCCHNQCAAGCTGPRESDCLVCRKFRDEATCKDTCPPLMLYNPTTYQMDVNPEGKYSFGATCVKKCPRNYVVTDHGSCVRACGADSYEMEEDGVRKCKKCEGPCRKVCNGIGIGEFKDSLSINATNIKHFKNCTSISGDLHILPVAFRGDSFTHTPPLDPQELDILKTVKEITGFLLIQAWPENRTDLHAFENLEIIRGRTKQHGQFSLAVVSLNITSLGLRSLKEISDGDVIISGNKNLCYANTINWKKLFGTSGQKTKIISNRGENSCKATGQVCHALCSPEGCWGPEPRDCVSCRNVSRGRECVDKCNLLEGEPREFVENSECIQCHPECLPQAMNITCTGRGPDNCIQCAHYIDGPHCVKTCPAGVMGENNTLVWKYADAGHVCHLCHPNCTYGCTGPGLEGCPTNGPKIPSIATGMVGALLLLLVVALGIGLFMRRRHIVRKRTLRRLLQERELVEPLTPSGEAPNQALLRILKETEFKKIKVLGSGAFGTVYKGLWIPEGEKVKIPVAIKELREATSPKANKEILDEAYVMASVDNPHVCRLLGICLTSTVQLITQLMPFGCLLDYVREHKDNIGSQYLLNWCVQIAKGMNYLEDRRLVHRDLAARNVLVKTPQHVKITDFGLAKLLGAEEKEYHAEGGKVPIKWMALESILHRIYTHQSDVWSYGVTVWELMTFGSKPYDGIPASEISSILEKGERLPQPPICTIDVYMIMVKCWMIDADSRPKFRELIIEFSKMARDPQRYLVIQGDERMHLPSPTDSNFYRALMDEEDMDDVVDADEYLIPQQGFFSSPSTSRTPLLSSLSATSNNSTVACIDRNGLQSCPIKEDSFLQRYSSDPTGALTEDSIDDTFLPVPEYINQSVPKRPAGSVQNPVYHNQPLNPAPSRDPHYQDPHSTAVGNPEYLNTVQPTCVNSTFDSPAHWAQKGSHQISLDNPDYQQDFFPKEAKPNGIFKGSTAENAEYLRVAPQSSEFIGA

| SMILES | IC50 (EGFR) [µM] | IC50 (PDGFR) [µM] |
| --- | --- | --- |
| Cc1cc(C(=O)N2CCN(C)CC2)[nH]c1/C=C1\C(=O)N(C)c2ncnc(Nc3ccc(F)c(Cl)c3)c21 [Formula 36] | 17.4 | > 20 |
| Cc1cc(C=C2C(=O)Nc3ncnc(Nc4ccc(F)c(Cl)c4)c32)[nH]c1C(=O)N1CCOCC1 [Formula 37] | 0.24 | > 20 |

Reference: patent US6908930B2, “4-substituted 7-AZA-indolin-2-ones and their use as protein kinase inhibitors” (Sugen, Inc., priority 1999, dated 2005)
